Assay results: article PMC7719179, “Small molecule inhibition of Dynamin-dependent endocytosis targets multiple niche signals and impairs leukemia stem cells” (Nature Communications, 2020)
Values joined by “and” are separate entries in the source; they are usually repeats but may differ in a detail not shown here. Identical values can stand only once. Like-named read-outs stand apart in the source and are kept apart here.

Columns and labels:
[1] = system: Hes1 in leukemic DN3a cells from primary Lmo2^Tg T-ALL; assay: Notch1 (DL1)-induced Hes1 in leukemic DN3a cells from primary Lmo2^Tg T-ALL; assay type: cell-based, mouse
Experimental: (§1) Phosphoflow analysis was performed as previously described. Briefly, 2 × 10^6 cells stained for surface markers were subsequently resuspended into PBS 1× + 4% v/v paraformaldehyde and incubated for 10 min at 4 °C for fixation. Fixed cells were washed twice using PBS 1×, then resuspended in pre-chilled at −20 °C Perm Buffer III (BD Pharmingen) and incubated 30 min at 4 °C for permeabilization. Cells were washed twice using PBS 1× and incubated overnight at 4 °C in PBS 1× + 2% v/v fetal calf serum (FCS) with Cell Signalling purified antibodies (Genesearch Pty Ltd, Arundel QLD, Australia) against pSTAT5 (Tyr694; #9359), phospho-p38 MAPK (Thr180/Tyr182; #4511), phospho-p44/42 (Erk1/2; #9102), phospho-S6 (Ser235/236; #4856) and phospho-Akt (Ser473; #9271) or isotype control. For intracellular HES1 detection, cells stained for surface markers were subsequently fixed and permeabilized using the BD Cytofix/Cytoperm^TM Kit and incubated overnight at 4 °C in PBS 1× + 2% v/v FCS with a purified antibody against HES1 (D6PU; #11988, Cell Signalling) or isotype control. After staining with primary antibodies for phosphoflow or intracellular detection, cells were incubated in permeabilization buffer with donkey Alexa Fluor 488-conjugated anti-rabbit secondary antibody (A-21206, lot #1910751, Molecular Probes, Invitrogen) or goat Alexa Fluor 546-conjugated anti-rabbit secondary antibody (A-11035, lot #1904467, Molecular Probes, Invitrogen) for 1 h on ice, and washed twice in PBS 1×. Fluorescence-activated cell sorting (FACS) analysis was performed using LSRII and LSR Fortessa cytometers, following the gating strategies described in Supplementary Fig. 11. Cell sorting was performed with a FACSAria or BD Influx.
For in vitro NOTCH1 signalling activation assays, cells were seeded on OP9 and OP9-DL1 stromal cell lines as described in the co-culture assays section and incubated overnight with either Dynole 34-2 or Ruxolitinib or DAPT resuspended in DMSO. Harvested cells were washed twice using cold PBS 1× and incubated with 25 ng/mL Rat IgG (Sigma-Aldrich Pty Ltd, Castle Hill NSW, Australia) with a PE-conjugated antibody for detection of NOTCH1 for 1 h on ice, as described in the FACS analysis section. PE-conjugated isotype was used as negative control. Cells were washed twice, fixed and analysed for intracellular HES1 detection by flow cytometry as described in the FACS analysis section. The analysis was performed in triplicate and the MFI observed in thymocytes co-cultured on OP9 cells was reported as 100%.

[2] = system: pStat5, Hes1, p-Erk, p-p38, p-S6, p-Akt in Lmo2^Tg DN3a cells; assay: Growth factor-mediated signalling effectors in co-cultured Lmo2^Tg DN3a cells (flow cytometry); assay type: cell-based, mouse; settings: Supplementary Figure 2c; unstimulated and vehicle controls in the same table
Experimental: as §1

[3] = system: DN3a thymocytes; assay: Relative viability and LC50 on DN3a thymocytes of WT, Lmo2^Tg, Lmo2^Tg;STAT5-CA^Tg and Lmo2^Tg;N1-ICD^Tg mice, 48 h
Experimental: Pre-leukemic and leukemic thymocytes were purified by flow cytometry and co-cultured on GFP-positive OP9 and OP9-DL1 stromal cell lines, as described previously. Thymocytes were co-cultured in reconstituted alpha-MEM medium (#12318, Gibco, Grand Island NY, USA) supplemented with 20% FCS (#12318), HEPES 10 mM (#15630-080), sodium pyruvate 1 mM (#11360-070), β-mercaptoethanol 55 μM (#21985-023), Glutamax 2 mM (#15750-060), 1% Penicillin/Streptomycin (#15140-122), 5 ng/mL rmFLT-3 ligand (#250-31 L, Pepro Tech), 5 ng/mL rmIL-7 (#217-17, Pepro Tech) and 25 ng/mL rmSCF (#250-03, Pepro Tech). After 48 h of co-culture, thymocytes were counted and analysed by FACS. […]
viability of wild-type (WT), Lmo2 Tg, Lmo2Tg;STAT5-CA Tg and Lmo2Tg;N1-ICD Tg DN3a thymocytes […]
normalized to cells treated with vehicle (%DMSO). Mean ± SEM of n=4 biological replicates. b, […]
thymocytes from 6-week old wild-type (WT), Lmo2 Tg, Lmo2Tg;STAT5-CATg and Lmo2Tg ;N1-ICD Tg mice. Mean ± SD of n=4 biological replicates are shown. 2-way ANOVA with Tukey’s correction test; […]
(1 picture or pasted object on this page, not shown here)
*P<0.05, *** P<0.001 compared to WT; #P<0.05, ##P<0.01, ###P<0.001 compared to L mo2Tg. c, Levels of pStat5 (left) after stimulation with IL-7 , as well as Hes1 expression (right) after co-culture on OP9- […]
(0.2 µM), Ruxolitinib (0.2 µM) and DAPT (0.1 µM). Unstimulated cells were used as negative controls (dashed line). Student’s t -test, ** P<0.01, *** P<0.001 compared to unstimulated cells. MFI ± SEM, 1-way ANOVA with Tukey’s correction test; **P<0.01, *** P<0.001 compared to vehicle. d, Clonogenic assay of normal murine hematopoietic stem and progenitor cells (HSPCs) cultured in the presence […]
± SD, Student’s t -test ( n=4) **P<0.01 compared to vehicle. e, Relative viability of wild-type (WT), […]
2 (0.2 µM), Ruxolitinib (0.2 µM) and DAPT (0.1 µM) for 48 hours. Viability was normalized to cells treated with vehicle (%DMSO, which was reported as 100). Mean ± SEM, 2-way ANOVA with Tukey’s correction test, **P<0.01, *** P<0.001 compared to vehicle.

[4] = leukemic DN3a cells of TALL249, Notch1 (DL1) stimulation
[5] = leukemic DN3a cells of TALL257, Notch1 (DL1) stimulation
[6] = leukemic DN3a cells of TALL273, Notch1 (DL1) stimulation
[7] = leukemic DN3a cells of TALL582, Notch1 (DL1) stimulation
[8] = leukemic DN3a cells of TALL588, Notch1 (DL1) stimulation
[9] = leukemic DN3a cells of TALL742, Notch1 (DL1) stimulation

## N#CC[C@H](C1CCCC1)n1cc(-c2ncnc3[nH]ccc23)cn1 [Ruxolitinib]
[1]; [4]
  Hes1 (MFI): 8215 MFI
  Hes1, FOLD over unstimulated: 1.09 fold
[1]; [5]
  Hes1 (MFI): 8036 MFI
  Hes1, FOLD over unstimulated: 1.41 fold
[1]; [6]
  Hes1 (MFI): 8741 MFI
  Hes1, FOLD over unstimulated: 1.04 fold
[1]; [7]
  Hes1 (MFI): 6452 MFI
  Hes1, FOLD over unstimulated: 1.20 fold
[1]; [8]
  Hes1 (MFI): 8104 MFI
  Hes1, FOLD over unstimulated: 1.48 fold
[1]; [9]
  Hes1 (MFI): 10321 MFI
  Hes1, FOLD over unstimulated: 1.31 fold
[2]
  Hes1 (MFI): 1340 MFI and 1445 MFI and 1491 MFI
[3]; LC50 comparison, 48 h
  fold resistance of Lmo2^Tg;STAT5-CA^Tg DN3a thymocytes vs Lmo2^Tg DN3a cells: 5.3 fold
[3]; Lmo2Tg;STAT5-CATg
  Survival (% DMSO): 69.32 % DMSO and 78.95 % DMSO and 73.54 % DMSO
[3]; Mus musculus, Thymocyte, read-out: Relative % viable cells, Lmo2Tg DN3a thymocytes, dose 0.04 mM (so in the source)
  viability at 40 µM: 88.8%
[3]; Mus musculus, Thymocyte, read-out: Relative % viable cells, Lmo2Tg;STAT5-CATg DN3a thymocytes, dose 0.04 mM (so in the source)
  viability at 40 µM: 95.5%
[3]; Mus musculus, Thymocyte, read-out: Relative % viable cells, Lmo2Tg;STAT5-CATg DN3a thymocytes, dose 0.2 mM (so in the source)
  viability at 200 µM: 69.3%
[3]; WT
  Survival (% DMSO): 39.65 % DMSO and 53.08 % DMSO and 37.17 % DMSO
